Assay [1] addresses PDE5 from human platelets (Homo sapiens, UniProt O76074). Description: PDE5 enzyme assay. The assay is classed as biochemical. The settings on record: for PDE Specificity Ratio PDE4/PDE5: from Table 1 data.
The next assay has as its system bovine PDE1. Briefly: PDE1 enzyme assay. In kind it is biochemical. The settings on record: for PDE Specificity Ratio PDE4/PDE1: from Table 1 data.
Assay [2] deals with PDE3 from human platelets (Homo sapiens, UniProt Q14432). Description: PDE3 enzyme assay. In kind it is biochemical. The settings on record: for PDE Specificity Ratio PDE4/PDE3: from Table 1 data.
PDE3 from human platelets, sequence (Q14432 whole entry): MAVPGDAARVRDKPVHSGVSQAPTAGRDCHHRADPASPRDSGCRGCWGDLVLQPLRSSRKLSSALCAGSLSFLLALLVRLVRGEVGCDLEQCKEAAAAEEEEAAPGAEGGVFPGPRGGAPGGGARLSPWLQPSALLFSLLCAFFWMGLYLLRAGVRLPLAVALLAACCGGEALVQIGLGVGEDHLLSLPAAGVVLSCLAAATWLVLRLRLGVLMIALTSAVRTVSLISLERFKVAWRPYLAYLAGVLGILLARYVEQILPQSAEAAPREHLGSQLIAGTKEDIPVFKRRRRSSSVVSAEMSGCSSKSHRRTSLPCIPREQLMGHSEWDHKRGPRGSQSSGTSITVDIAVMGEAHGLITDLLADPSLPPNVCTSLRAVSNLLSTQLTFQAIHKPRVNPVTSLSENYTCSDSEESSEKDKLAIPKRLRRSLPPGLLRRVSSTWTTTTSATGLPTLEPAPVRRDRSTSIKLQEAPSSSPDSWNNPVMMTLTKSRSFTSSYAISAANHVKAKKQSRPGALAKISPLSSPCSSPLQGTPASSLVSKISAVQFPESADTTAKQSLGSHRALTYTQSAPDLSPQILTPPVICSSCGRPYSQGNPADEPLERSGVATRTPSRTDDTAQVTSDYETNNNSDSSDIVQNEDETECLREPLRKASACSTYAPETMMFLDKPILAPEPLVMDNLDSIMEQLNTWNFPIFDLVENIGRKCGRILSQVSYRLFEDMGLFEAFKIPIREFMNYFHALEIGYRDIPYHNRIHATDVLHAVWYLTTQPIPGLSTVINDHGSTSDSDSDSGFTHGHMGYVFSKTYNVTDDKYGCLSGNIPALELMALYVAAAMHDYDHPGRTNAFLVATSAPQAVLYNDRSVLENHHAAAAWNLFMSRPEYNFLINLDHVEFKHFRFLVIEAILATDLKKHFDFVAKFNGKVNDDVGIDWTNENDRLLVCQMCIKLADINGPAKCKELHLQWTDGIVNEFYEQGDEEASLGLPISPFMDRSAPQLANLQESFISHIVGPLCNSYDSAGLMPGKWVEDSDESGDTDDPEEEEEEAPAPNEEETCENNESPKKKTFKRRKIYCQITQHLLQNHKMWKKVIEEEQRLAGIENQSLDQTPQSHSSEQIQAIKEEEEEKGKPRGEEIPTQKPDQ
A further assay concerns PDE4 (from U937 cells). Briefly: PDE4 (U937 cell-derived) enzyme assay. The settings on record: 1 μM cAMP. The assay is classed as biochemical, human.
The target of the next assay is human PDE2 (Homo sapiens, UniProt O00408). Briefly: PDE2 enzyme assay. The assay is classed as biochemical. The settings on record: for PDE Specificity Ratio PDE4/PDE2: from Table 1 data.
human PDE2, sequence (O00408 whole entry): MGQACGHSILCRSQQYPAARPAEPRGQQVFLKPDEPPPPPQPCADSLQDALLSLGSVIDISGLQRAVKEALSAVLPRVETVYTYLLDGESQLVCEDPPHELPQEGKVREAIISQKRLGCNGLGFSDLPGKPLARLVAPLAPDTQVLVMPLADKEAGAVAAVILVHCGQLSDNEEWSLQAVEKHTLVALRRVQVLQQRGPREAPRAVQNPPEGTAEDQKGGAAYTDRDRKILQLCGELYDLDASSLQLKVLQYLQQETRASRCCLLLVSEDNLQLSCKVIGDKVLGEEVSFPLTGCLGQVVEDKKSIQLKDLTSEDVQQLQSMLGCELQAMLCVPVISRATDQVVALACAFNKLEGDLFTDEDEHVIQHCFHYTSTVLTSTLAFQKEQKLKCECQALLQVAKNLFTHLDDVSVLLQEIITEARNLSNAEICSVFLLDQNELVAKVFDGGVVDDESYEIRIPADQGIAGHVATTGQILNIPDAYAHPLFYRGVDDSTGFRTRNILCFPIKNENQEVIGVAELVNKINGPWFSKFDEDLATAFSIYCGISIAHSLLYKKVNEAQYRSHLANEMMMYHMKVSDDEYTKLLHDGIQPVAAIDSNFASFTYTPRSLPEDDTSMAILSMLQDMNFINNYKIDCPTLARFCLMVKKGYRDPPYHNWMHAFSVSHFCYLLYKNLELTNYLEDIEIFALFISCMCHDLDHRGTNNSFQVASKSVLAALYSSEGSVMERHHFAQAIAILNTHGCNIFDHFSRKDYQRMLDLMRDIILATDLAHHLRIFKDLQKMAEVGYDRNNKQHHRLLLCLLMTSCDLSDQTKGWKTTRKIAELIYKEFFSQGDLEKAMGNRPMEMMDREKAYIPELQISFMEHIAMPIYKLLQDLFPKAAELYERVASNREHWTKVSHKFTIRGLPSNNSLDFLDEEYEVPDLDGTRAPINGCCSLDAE
In assay [3] the target is T1, PDE6 from bovine retinal rod outer segments (Bos taurus, UniProt P11541+P23439).
T1 construct: PDE6 from bovine retinal rod outer segments; from tissue; host or cells: bovine retinal rod outer segments
T1 sequence (P11541 2-856 limits assumed): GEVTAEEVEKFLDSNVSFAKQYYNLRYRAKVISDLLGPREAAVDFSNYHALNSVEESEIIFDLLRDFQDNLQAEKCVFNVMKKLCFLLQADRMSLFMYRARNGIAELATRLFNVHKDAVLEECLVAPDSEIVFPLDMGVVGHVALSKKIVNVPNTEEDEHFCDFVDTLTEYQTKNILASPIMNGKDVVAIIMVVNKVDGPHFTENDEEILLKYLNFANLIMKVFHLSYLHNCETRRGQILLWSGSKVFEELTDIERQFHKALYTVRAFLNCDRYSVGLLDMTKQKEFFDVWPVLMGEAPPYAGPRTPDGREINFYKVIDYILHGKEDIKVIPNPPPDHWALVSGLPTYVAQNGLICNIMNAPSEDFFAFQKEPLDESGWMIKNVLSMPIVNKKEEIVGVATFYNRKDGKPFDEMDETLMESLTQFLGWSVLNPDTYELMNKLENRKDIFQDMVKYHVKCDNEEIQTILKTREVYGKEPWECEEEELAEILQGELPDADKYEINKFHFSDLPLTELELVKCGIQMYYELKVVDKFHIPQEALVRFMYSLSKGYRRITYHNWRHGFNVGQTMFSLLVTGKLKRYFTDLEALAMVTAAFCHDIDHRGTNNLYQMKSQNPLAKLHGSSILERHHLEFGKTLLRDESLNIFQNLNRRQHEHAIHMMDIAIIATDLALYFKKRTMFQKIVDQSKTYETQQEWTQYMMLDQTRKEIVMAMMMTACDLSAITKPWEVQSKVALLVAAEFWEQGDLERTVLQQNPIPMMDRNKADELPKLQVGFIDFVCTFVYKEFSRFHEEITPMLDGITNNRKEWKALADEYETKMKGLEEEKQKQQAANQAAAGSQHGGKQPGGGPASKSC
T1 sequence (P23439 2-850 limits assumed): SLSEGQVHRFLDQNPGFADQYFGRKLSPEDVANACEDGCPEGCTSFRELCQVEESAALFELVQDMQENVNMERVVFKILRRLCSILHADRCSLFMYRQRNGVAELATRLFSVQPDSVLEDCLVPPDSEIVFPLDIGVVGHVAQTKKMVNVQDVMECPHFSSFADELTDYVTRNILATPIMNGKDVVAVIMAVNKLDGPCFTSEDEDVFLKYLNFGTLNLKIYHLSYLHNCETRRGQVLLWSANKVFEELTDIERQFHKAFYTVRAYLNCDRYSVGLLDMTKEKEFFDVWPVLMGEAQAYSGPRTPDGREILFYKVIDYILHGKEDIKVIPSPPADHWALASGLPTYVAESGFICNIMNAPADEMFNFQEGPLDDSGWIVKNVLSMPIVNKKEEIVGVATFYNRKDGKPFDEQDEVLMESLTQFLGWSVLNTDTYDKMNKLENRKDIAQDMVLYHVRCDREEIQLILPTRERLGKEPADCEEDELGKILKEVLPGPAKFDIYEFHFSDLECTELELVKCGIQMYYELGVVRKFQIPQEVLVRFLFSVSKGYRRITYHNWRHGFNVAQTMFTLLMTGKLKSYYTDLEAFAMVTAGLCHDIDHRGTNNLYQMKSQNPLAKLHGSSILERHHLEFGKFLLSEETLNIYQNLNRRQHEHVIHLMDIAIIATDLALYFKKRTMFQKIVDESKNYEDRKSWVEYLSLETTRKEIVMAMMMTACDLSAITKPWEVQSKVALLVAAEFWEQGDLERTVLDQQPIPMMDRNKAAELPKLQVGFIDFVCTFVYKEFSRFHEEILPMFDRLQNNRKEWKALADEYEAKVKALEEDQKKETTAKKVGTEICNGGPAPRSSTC
Briefly: PDE6 enzyme assay. The assay is classed as biochemical.

Bounds are passed on as bounds.

A word on the IC50: it is the midpoint of a concentration-inhibition curve. Read a high IC50 as weaker potency in that assay. Turning to `CCOc1cc(C(CS(C)(=O)=O)N2C(=O)c3cccc(NC(C)=O)c3C2=O)ccc1OC` (racemic) [Racemic Compound, 2-[1-(3-Ethoxy-4-methoxyphenyl)-2-methylsulfonylethyl]-4-acetylaminoisoindoline-1,3-dione], the “PDE Specificity Ratio PDE4/PDE5” value in assay [1] was greater than 12000 fold. Moreover, in the assay on bovine PDE1, the “PDE1 (% inhib at 10 μM)” value was 9% and the “PDE Specificity Ratio PDE4/PDE1” value was greater than 2700 fold. Further, in assay [2], the “PDE Specificity Ratio PDE4/PDE3” value was greater than 670 fold. Moreover, in the assay on PDE4 (from U937 cells), the midpoint of inhibition, the IC50, lay at 81.8 nM. For the same compound, at human PDE2, the “PDE Specificity Ratio PDE4/PDE2” value is greater than 800 fold.

Take `CCOc1cc([C@H](CS(C)(=O)=O)N2C(=O)c3cccc(NC(C)=O)c3C2=O)ccc1OC` [Compound B]: the “PDE5 (% inhib at 10 μM)” value in assay [1] (10 μM) is on record as −9%. For the same compound, in assay [1], the “PDE Specificity Ratio PDE4/PDE5” value is greater than 39000 fold. In the assay with bovine PDE1, the “PDE1 (% inhib at 10 μM)” value is given as 27% and the “PDE Specificity Ratio PDE4/PDE1” value is given as greater than 50 fold. Further, the “PDE3 (% inhib at 10 μM)” value in assay [2] (10 μM) stood at 31%. Also, the “PDE Specificity Ratio PDE4/PDE3” value in assay [2] is given as greater than 45 fold. For the same compound, the “PDE6 (% inhib at 10 μM)” value in assay [3] (10 μM) is 10%. Besides, the “PDE Specificity Ratio PDE4/PDE6” value in assay [3] (from Table 1 data) is listed as greater than 250 fold. This compound also gave an IC50 with PDE4 (from U937 cells) of 611 nM. Further, the “PDE2 (% inhib at 10 μM)” value on human PDE2 (10 μM) is listed as 10%. Moreover, on human PDE2, the “PDE Specificity Ratio PDE4/PDE2” value is recorded as greater than 260 fold.

The values above are taken from patent US8629173B2, “Solid forms comprising (+)-2-[1-(3-ethoxy-4-methoxyphenyl)-2-methylsulfonylethyl]-4-acetylaminoisoindoline-1,3-dione, compositions thereof, and uses thereof” (Celgene Corporation, priority 2002, dated 2014).
